In the supplement of paper PMC10307832:

How the values were obtained:
Assay in all cases: relative viability (nuclei count vs DMSO), 5 days (fraction); higher = more cells survive
17-AAG = compound: C=CCNC1=C2C[C@@H](C)C[C@H](OC)[C@H](O)[C@@H](C)/C=C(\C)[C@H](OC(N)=O)[C@@H](OC)/C=C\C=C(/C)C(=O)NC(=CC1=O)C2=O [17-AAG]
Outline: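 Cells of lung cancer lines were placed in 1536-well plates and kept overnight at 37 °C. Pinning then delivered five library-drug doses (not always all listed), spaced by √10, onto plates anchored with vehicle, and the cells were left 5 days without changing medium. One step fixed, permeabilised and stained them with Hoechst, and MetaXpress counted nuclei in 4× images. Viability, as a median over plates, is treated-well nuclei divided by vehicle-well nuclei, with acceptance only at control CV below 25% and at least one doubling.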

17-AAG + Bortezomib = compound: C=CCNC1=C2C[C@@H](C)C[C@H](OC)[C@H](O)[C@@H](C)/C=C(\C)[C@H](OC(N)=O)[C@@H](OC)/C=C\C=C(/C)C(=O)NC(=CC1=O)C2=O [17-AAG] + CC(C)C[C@H](NC(=O)[C@H](Cc1ccccc1)NC(=O)c1cnccn1)B(O)O [Bortezomib] (partner 0.002 µM)
Outline: (§1)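 After 5 days of treatment, lung cancer cells in 1536-well plates were fixed and stained in a single step (final 0.05% Triton X-100, 1% formaldehyde, 1 ug/ml Hoechst) and their nuclei counted on 4× images. Treatment had been applied by pin tool the day after seeding as one drug alone or as a fixed anchor-drug dose with five library-drug doses (not always all listed) in √10 steps. Relative viability is the nuclei count of treated wells divided by that of vehicle wells, and values are medians of duplicate plates.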

17-AAG + Olaparib = compound: C=CCNC1=C2C[C@@H](C)C[C@H](OC)[C@H](O)[C@@H](C)/C=C(\C)[C@H](OC(N)=O)[C@@H](OC)/C=C\C=C(/C)C(=O)NC(=CC1=O)C2=O [17-AAG] + O=C(c1cc(Cc2n[nH]c(=O)c3ccccc23)ccc1F)N1CCN(C(=O)C2CC2)CC1 [Olaparib] (partner 8 µM)
Outline: as §1

17-AAG + Lapatinib = compound: C=CCNC1=C2C[C@@H](C)C[C@H](OC)[C@H](O)[C@@H](C)/C=C(\C)[C@H](OC(N)=O)[C@@H](OC)/C=C\C=C(/C)C(=O)NC(=CC1=O)C2=O [17-AAG] + CS(=O)(=O)CCNCc1ccc(-c2ccc3ncnc(Nc4ccc(OCc5cccc(F)c5)c(Cl)c4)c3c2)o1 [Lapatinib] (partner 2 µM)
Outline: as §1

17-AAG + Foretinib = compound: C=CCNC1=C2C[C@@H](C)C[C@H](OC)[C@H](O)[C@@H](C)/C=C(\C)[C@H](OC(N)=O)[C@@H](OC)/C=C\C=C(/C)C(=O)NC(=CC1=O)C2=O [17-AAG] + COc1cc2c(Oc3ccc(NC(=O)C4(C(=O)Nc5ccc(F)cc5)CC4)cc3F)ccnc2cc1OCCCN1CCOCC1 [Foretinib] (partner 0.25 µM)
Outline: as §1

17-AAG + Crizotinib = compound: C=CCNC1=C2C[C@@H](C)C[C@H](OC)[C@H](O)[C@@H](C)/C=C(\C)[C@H](OC(N)=O)[C@@H](OC)/C=C\C=C(/C)C(=O)NC(=CC1=O)C2=O [17-AAG] + C[C@@H](Oc1cc(-c2cnn(C3CCNCC3)c2)cnc1N)c1c(Cl)ccc(F)c1Cl [Crizotinib] (partner 1 µM)
Outline: as §1

17-AAG + Navitoclax = compound: C=CCNC1=C2C[C@@H](C)C[C@H](OC)[C@H](O)[C@@H](C)/C=C(\C)[C@H](OC(N)=O)[C@@H](OC)/C=C\C=C(/C)C(=O)NC(=CC1=O)C2=O [17-AAG] + CC1(C)CCC(c2ccc(Cl)cc2)=C(CN2CCN(c3ccc(C(=O)NS(=O)(=O)c4ccc(N[C@H](CCN5CCOCC5)CSc5ccccc5)c(S(=O)(=O)C(F)(F)F)c4)cc3)CC2)C1 [Navitoclax] (partner 0.5 µM)
Outline: as §1

17-AAG + Linsitinib = compound: C=CCNC1=C2C[C@@H](C)C[C@H](OC)[C@H](O)[C@@H](C)/C=C(\C)[C@H](OC(N)=O)[C@@H](OC)/C=C\C=C(/C)C(=O)NC(=CC1=O)C2=O [17-AAG] + C[C@]1(O)C[C@@H](c2nc(-c3ccc4ccc(-c5ccccc5)nc4c3)c3c(N)nccn32)C1 [Linsitinib] (partner 1 µM)
Outline: as §1

17-AAG + Alpelisib = compound: C=CCNC1=C2C[C@@H](C)C[C@H](OC)[C@H](O)[C@@H](C)/C=C(\C)[C@H](OC(N)=O)[C@@H](OC)/C=C\C=C(/C)C(=O)NC(=CC1=O)C2=O [17-AAG] + Cc1nc(NC(=O)N2CCC[C@H]2C(N)=O)sc1-c1ccnc(C(C)(C)C(F)(F)F)c1 [Alpelisib] (partner 2 µM)
Outline: as §1

17-AAG + Pictilisib = compound: C=CCNC1=C2C[C@@H](C)C[C@H](OC)[C@H](O)[C@@H](C)/C=C(\C)[C@H](OC(N)=O)[C@@H](OC)/C=C\C=C(/C)C(=O)NC(=CC1=O)C2=O [17-AAG] + CS(=O)(=O)N1CCN(Cc2cc3nc(-c4cccc5[nH]ncc45)nc(N4CCOCC4)c3s2)CC1 [Pictilisib] (partner 1 µM)
Outline: as §1

Cell Line Calu-6 has a relative viability (17-AAG; 0.00128 µM) of 1.02, a relative viability (17-AAG; 0.004048 µM) of 0.984 and a relative viability (17-AAG; 0.0128 µM) of 0.946. For the same cell line, the relative viability (17-AAG; 0.04048 µM) was 0.3, the relative viability (17-AAG; 0.128 µM) was 0.148 and the relative viability (17-AAG + Bortezomib; first compound 0.00128 µM) was 1.06. It also gave a relative viability (17-AAG + Bortezomib; first compound 0.004048 µM) of 0.92, a relative viability (17-AAG + Bortezomib; first compound 0.0128 µM) of 0.896 and a relative viability (17-AAG + Bortezomib; first compound 0.04048 µM) of 0.317. For the same cell line, the relative viability (17-AAG + Bortezomib; first compound 0.128 µM) was 0.183, the relative viability (17-AAG + Olaparib; first compound 0.00128 µM) was 0.564 and the relative viability (17-AAG + Olaparib; first compound 0.004048 µM) was 0.571. It also gave a relative viability (17-AAG + Olaparib; first compound 0.0128 µM) of 0.557, a relative viability (17-AAG + Olaparib; first compound 0.04048 µM) of 0.184 and a relative viability (17-AAG + Olaparib; first compound 0.128 µM) of 0.124. It also gave a relative viability (17-AAG + Lapatinib; first compound 0.00128 µM) of 1.03, a relative viability (17-AAG + Lapatinib; first compound 0.004048 µM) of 1.01 and a relative viability (17-AAG + Lapatinib; first compound 0.0128 µM) of 0.861. For the same cell line, the relative viability (17-AAG + Lapatinib; first compound 0.04048 µM) was 0.323, the relative viability (17-AAG + Lapatinib; first compound 0.128 µM) was 0.135 and the relative viability (17-AAG + Foretinib; first compound 0.00128 µM) was 0.833. For the same cell line, the relative viability (17-AAG + Foretinib; first compound 0.004048 µM) was 0.899, the relative viability (17-AAG + Foretinib; first compound 0.0128 µM) was 0.754 and the relative viability (17-AAG + Foretinib; first compound 0.04048 µM) was 0.249. It also gave a relative viability (17-AAG + Foretinib; first compound 0.128 µM) of 0.121, a relative viability (17-AAG + Crizotinib; first compound 0.00128 µM) of 0.842 and a relative viability (17-AAG + Crizotinib; first compound 0.004048 µM) of 0.77. The relative viability (17-AAG + Crizotinib; first compound 0.0128 µM) was 0.775, the relative viability (17-AAG + Crizotinib; first compound 0.04048 µM) was 0.202 and the relative viability (17-AAG + Crizotinib; first compound 0.128 µM) was 0.109. The relative viability (17-AAG + Navitoclax; first compound 0.00128 µM) was 0.783, the relative viability (17-AAG + Navitoclax; first compound 0.004048 µM) was 0.735 and the relative viability (17-AAG + Navitoclax; first compound 0.0128 µM) was 0.703. The relative viability (17-AAG + Navitoclax; first compound 0.04048 µM) was 0.197, the relative viability (17-AAG + Navitoclax; first compound 0.128 µM) was 0.122 and the relative viability (17-AAG + Linsitinib; first compound 0.00128 µM) was 0.86. For the same cell line, the relative viability (17-AAG + Linsitinib; first compound 0.004048 µM) was 0.977, the relative viability (17-AAG + Linsitinib; first compound 0.0128 µM) was 0.942 and the relative viability (17-AAG + Linsitinib; first compound 0.04048 µM) was 0.353. It also gave a relative viability (17-AAG + Linsitinib; first compound 0.128 µM) of 0.146, a relative viability (17-AAG + Alpelisib; first compound 0.00128 µM) of 0.959 and a relative viability (17-AAG + Alpelisib; first compound 0.004048 µM) of 0.928. The relative viability (17-AAG + Alpelisib; first compound 0.0128 µM) was 0.915, the relative viability (17-AAG + Alpelisib; first compound 0.04048 µM) was 0.363 and the relative viability (17-AAG + Alpelisib; first compound 0.128 µM) was 0.188. It also gave a relative viability (17-AAG + Pictilisib; first compound 0.00128 µM) of 0.913, a relative viability (17-AAG + Pictilisib; first compound 0.004048 µM) of 0.867 and a relative viability (17-AAG + Pictilisib; first compound 0.0128 µM) of 0.762. For the same cell line, the relative viability (17-AAG + Pictilisib; first compound 0.04048 µM) was 0.199 and the relative viability (17-AAG + Pictilisib; first compound 0.128 µM) was 0.133.
